The values that follow come from patent US7179804B2, “Tachykinin receptor antagonists” (Eli Lilly and Company, priority 2002, dated 2007).

What is called melting point is the temperature, or range, at which the solid turns liquid.

Molecules are shown by their SMILES.

With `CC(C)(O)c1onc(-c2ccccc2Cl)c1C(=O)c1nnn(Cc2cc(C(F)(F)F)cc(C(F)(F)F)c2)c1N1CCOCC1` [Example 73], the melting point is 188 °C.
`CC(C)(O)c1onc(-c2ccccc2Cl)c1C(=O)c1nnn(Cc2cc(C(F)(F)F)cc(C(F)(F)F)c2)c1-c1cccnc1` [Example 79, [1-(3,5-bis-trifluoromethyl-benzyl)-5-pyridin-3-yl-1H-[1,2,3]triazol-4-yl]-[3-(2-chloro-phenyl)-5-(1-hydroxy-1-methyl-ethyl)-isoxazol-4-yl]-methanone] displayed a melting point of 105 °C.
The same measure for `CC(O)c1onc(-c2ccccc2Cl)c1C(=O)c1nnn(Cc2cc(C(F)(F)F)cc(C(F)(F)F)c2)c1N1CCOCC1` (centres unmarked) [Example 81, [1-(3,5-bis-trifluoromethyl-benzyl)-5-morpholin-4-yl-1H-[1,2,3]triazol-4-yl]-[3-(2-chloro-phenyl)-5-(1-hydroxy-ethyl)-isoxazol-4-yl]-methanone]: 145 to 146 °C; for `CC(C)(O)c1onc(-c2ccccc2Cl)c1C(=O)c1nnn(Cc2cc(F)cc(C(F)(F)F)c2)c1-c1cccnc1` [Example 211, [3-(2-chloro-phenyl)-5-(1-hydroxy-1-methyl-ethyl)-isoxazol-4-yl]-[1-(3-fluoro-5-trifluoromethyl-benzyl)-5-pyridin-3-yl-1H-[1,2,3]triazol-4-yl]-methanone]: 180 °C; for `O=C(c1nnn(Cc2cc(C(F)(F)F)cc(C(F)(F)F)c2)c1-n1ccnc1)c1c(CO)noc1-c1ccccc1Cl` [Example 269, [1-(3,5-bistrifluoromethylbenzyl)-5-imidazol-1-yl-1H-[1,2,3]triazol-4-yl]-[5-(2-chlorophenyl)-3-hydroxymethyl-isoxazol-4-yl]-methanone]: 148.8 °C.
